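Five compound concentrations were applied to cells in 96-well plates for 48 hours; endpoints were derived by simple linear interpolation of the resulting dose-response curve. The concentration for 50% growth inhibition is given as GI50.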 The source made the active and inactive calls. Cut-off read from the data, not from the text of the source: active = GI50 up to about 1.1 µM and inactive = higher.
What was measured:
Experiment in all cases: inhibition of tumour cell growth, NCI panel, 48 h
A549 = system: A549
KM-20L2 = system: KM-20L2
SK-MEL-28 = system: SK-MEL-28
TK-10 = system: TK-10
UO-31 = system: UO-31
UACC-257 = system: UACC-257
OVCAR-5 = system: OVCAR-5
DLD-1 = system: DLD-1
IGROV-1 = system: IGROV-1
HCT-116 = system: HCT-116
SF-268 = system: SF-268
HL-60 = system: HL-60
SK-OV-3 = system: SK-OV-3
ACHN = system: ACHN
SN12C = system: SN12C
CCRF-CEM = system: CCRF-CEM
NCI-H226 = system: NCI-H226
SR = system: SR
MDA-N = system: MDA-N

Measured: GI50

C[N+](C)(C)CC(=O)N/N=C(/C=C/c1ccccc1)CC1OC(=O)c2ccccc21 (centres undefined)
inactive: A549 > 100 µM | KM-20L2 > 100 µM | SK-MEL-28 > 100 µM | TK-10 > 100 µM | UO-31 > 100 µM | UACC-257 > 100 µM | OVCAR-5 > 10 µM | DLD-1 > 100 µM | IGROV-1 > 100 µM | HCT-116 > 100 µM | SF-268 > 100 µM | HL-60 > 100 µM | SK-OV-3 > 100 µM | ACHN > 100 µM | SN12C > 100 µM | CCRF-CEM > 100 µM | NCI-H226 > 100 µM

CCOc1ccc2c(c1)[n+]([O-])c(C(N)=O)c(N)[n+]2[O-]
inactive: A549 > 100 µM | KM-20L2 > 100 µM | SK-MEL-28 > 100 µM | UO-31 > 100 µM | UACC-257 > 100 µM | OVCAR-5 > 100 µM | DLD-1 > 100 µM | IGROV-1 > 100 µM | HCT-116 > 100 µM | SF-268 > 100 µM | HL-60 > 100 µM | SR > 100 µM | SK-OV-3 > 100 µM | ACHN > 100 µM | SN12C > 100 µM | CCRF-CEM 94 µM | NCI-H226 > 100 µM

O=[N+]([O-])c1cccc(S(=O)(=O)N/N=C/c2cc(I)cc([N+](=O)[O-])c2O)c1
inactive: A549 > 100 µM | KM-20L2 43 µM | SK-MEL-28 27.7 µM | TK-10 29.2 µM | UO-31 26.1 µM | UACC-257 25.2 µM | OVCAR-5 40.1 µM | DLD-1 42.5 µM | IGROV-1 36.3 µM | HCT-116 27.9 µM | SF-268 30.1 µM | HL-60 21.3 µM | SR 26.9 µM | SK-OV-3 26.5 µM | ACHN 31.5 µM | SN12C 24.2 µM | CCRF-CEM 20.1 µM

O=[N+]([O-])c1ccc(C2CC(c3ccccc3Cl)=Nc3ccccc3[S+]2[O-])cc1 (centres undefined)
inactive: A549 9.64 µM | KM-20L2 2.59 µM | SK-MEL-28 5.18 µM | TK-10 8.02 µM | UO-31 2.06 µM | UACC-257 15.8 µM | OVCAR-5 3.71 µM | DLD-1 2.06 µM | IGROV-1 2.77 µM | HCT-116 1.88 µM | SF-268 8.83 µM | MDA-N 9.51 µM | HL-60 1.19 µM | SR 2.84 µM | SK-OV-3 19.8 µM | ACHN 2.01 µM | SN12C 2.26 µM | CCRF-CEM 1.48 µM | NCI-H226 5.86 µM

COC(=O)CCC(=O)CC(=O)C(=O)Nc1c(Cl)cc([N+](=O)[O-])cc1Cl
inactive: A549 > 100 µM | KM-20L2 > 100 µM | SK-MEL-28 > 100 µM | TK-10 > 100 µM | UO-31 > 100 µM | UACC-257 > 100 µM | OVCAR-5 > 100 µM | DLD-1 65.6 µM | IGROV-1 > 100 µM | HCT-116 42.3 µM | SF-268 > 100 µM | HL-60 > 100 µM | SR 27.2 µM | SK-OV-3 > 100 µM | ACHN > 100 µM | SN12C > 100 µM | CCRF-CEM 57.3 µM | NCI-H226 > 100 µM

O=C1C(N2C(=O)c3ccccc3C2=O)CN1C(COCc1ccccc1)c1ccc(OCc2ccccc2)cc1 (centres undefined)
inactive: A549 > 100 µM | KM-20L2 > 100 µM | SK-MEL-28 > 100 µM | TK-10 > 100 µM | UO-31 > 100 µM | UACC-257 > 100 µM | OVCAR-5 > 100 µM | DLD-1 > 100 µM | IGROV-1 > 100 µM | HCT-116 > 100 µM | SF-268 > 100 µM | HL-60 > 100 µM | SR > 100 µM | SK-OV-3 > 100 µM | ACHN > 100 µM | SN12C > 100 µM | CCRF-CEM > 100 µM | NCI-H226 > 100 µM

COc1c(OC2OC(CO)C(O)C(O)C2O)cc2c(c1OC)-c1ccc(OC)c(=O)cc1[C@@H](NC(C)=O)CC2 (some centres undefined)
inactive: A549 > 100 µM | KM-20L2 > 100 µM | SK-MEL-28 59.4 µM | TK-10 > 100 µM | UO-31 > 100 µM | UACC-257 > 84.5 µM | OVCAR-5 > 100 µM | DLD-1 > 100 µM | IGROV-1 83 µM | HCT-116 > 100 µM | SF-268 > 56.2 µM | HL-60 > 70.8 µM | SR > 100 µM | SK-OV-3 > 100 µM | ACHN > 100 µM | SN12C > 91 µM | CCRF-CEM 65.2 µM | NCI-H226 > 100 µM
